{"source": "paper PMC6491884", "about": "“Synthesis and Biological Evaluation of 4β-N-Acetylamino Substituted Podophyllotoxin Derivatives as Novel Anticancer Agents” (Frontiers in Chemistry, 2019)", "key": {"[1]": {"system": "HeLA (human cervical carcinoma)", "test": "MTT growth inhibition assay, HeLA", "type": "cell-based", "conditions": "Homo sapiens, 48 h, read-out: IC50 (μM) HeLA, MTT, 48 h, n = 3", "procedure": "(§1) Target compounds 12a–t were evaluated for in vitro cytotoxicity against four human tumor cell lines, including H460 (non-small cell lung carcinoma), HeLA (human cervical carcinoma), EC9706 (human esophageal squamous cell carcinoma), and T24 (human bladder carcinoma), using HaCaT (human immortalized epidermal cells) as a human non-malignant cell line. Etoposide (3) was included as a positive control. The screening procedure was based on the 3-(4, 5-dimethylthiazol-2-yl)-2, 5-diphenyltetrazoliun bromide (MTT) growth inhibition assay with triplicate experiments, and the results are summarized in Table 1.\n(§2) The four human cancer cell lines and a normal human epidermal cell line of the screening panel, including H460 (human non-small cell lung carcinoma), HeLA (human cervical carcinoma), EC9706 (human esophageal squamous cell carcinoma), T24 (human bladder carcinoma), and HaCaT (human immortalized epidermal cells), were purchased from American Type Culture Collection (ATCC, Manassas, VA, U.S.A.). H460, EC9706, and T24 were maintained in RPMI 1640 medium containing 10% Fetal Bovine Serum, 100 units/ml penicillin, 100 μg/ml streptomycin under humidified incubator with 5% CO2 atmosphere at 37°C. HeLA and HaCaT were maintained in Dulbecco′s […] (DMEM) supplemented with 10% Fetal Bovine Serum 100 units/ml penicillin, 100 μg/ml streptomycin in a humidified incubator and 5% CO2 atmosphere at 37°C. Logarithmically growing cells were used for the following experiments.\n(§3) The cytotoxicity of the synthesized compounds 12a–t against a panel of human cell lines was determined by the 3-(4,5-dimethylthiazol-2-yl)-2,5-diphenyltetrazoliun bromide (MTT) growth inhibition assay. The five human cell lines were, respectively, plated in 96-well-culture plates at the density of 1 × 10^5 cells per well and incubated for 24 h. Cells were exposed to different concentrations of synthetic podophyllotoxin derivatives for 48 h. MTT was added with a dose of 5 mg/mL in phosphate-buffered saline. After incubation for 4 h at 37°C, the purple formazan crystals were dissolved with […] dimethyl sulfoxide and the absorbance was measured at 570 nm in an ELISA reader. Antiproliferative activity was expressed using the IC50 value defined as the concentration of synthetic podophyllotoxin derivatives inhibiting cell proliferation by 50%. The cell viability ratio was calculated by the following formula: cell viability ratio (%) = OD treated /OD control × 100% (Ma et al., [2014])."}, "[2]": {"system": "EC9706 (human esophageal squamous cell carcinoma)", "test": "MTT growth inhibition assay, EC9706", "type": "cell-based", "conditions": "EC9706, 48 h, read-out: IC50 (μM) EC9706", "procedure": "as §1, §2, §3"}, "T24 cells [3]": {"system": "T24 cells", "test": "Cell cycle distribution analysis (FACS, propidium iodide), T24", "type": "cell-based, human", "procedure": "(§4) Flow cytometry analysis was carried out to evaluate cell cycle changes and gain further insight into the mode of action with respect to the anti-proliferative effect of compound 12g. HeLA and T24 cancer cells were treated with the selected compound 12g for […] at three different gradient concentrations. The cell cycle accumulation was examined by the propidium iodide staining and cytometric quantification after the cancer cells were cultured for 24 h.\nTo understand the cell cycle effect of the synthesized analogs, cell cycle distribution analysis was performed by FACS (Becton Dickinson, San Jose, CA, USA). […] After treatment, the cells were washed once with PBS and fixed with 70% ice-cold ethanol at […] for overnight. Ethanol was removed by Centrifugation. The cells were stained with a solution containing 0.1% Triton-X 100 (Sigma), 0.2 mg/mL RNase (Sigma), and […] propidium iodide (PI, Sigma) in the dark for 30 min at room temperature. Then, cell cycle distribution was analyzed by using a FACS can flow cytometer (Chen et al., [2013])."}, "T24 cells [4]": {"system": "T24 cells", "test": "Hoechst 33258 staining, T24", "type": "cell-based, human", "conditions": "T24, 0.5/1.0/2.0 μM, 24 h, vs vehicle 0.1% DMSO", "procedure": "(§5) Apoptosis is one of the major pathways leading to the process of cell death. Visualization of chromatin condensation as well as nuclear shrinking and fragmentation—known as classic characteristics of apoptosis—was carried out in the presence of a representative compound 12g by staining T24 and HeLA cells with Hoechst 33258, by which apoptosis was confirmed as the cause of reduced cell viability.\n(§6) T24 and HeLA cells were seeded at a density of 3 × 10^4 cells per well and cultured in 6 well-plates on a cover slip for 24 h at 37°C. Compound 12g treated T24 and HeLA cancer cells for 24 h at 37°C with concentrations of 0.5/1.0/2.0 and 0.75/1.5/3.0 μM, respectively. Afterward, the treated cells were fixed with 4% paraformaldehyde (PFA) for 30 min and stained with 5 μg/mL Hoechst 33258 (bis-benzimide; KeyGEN Bio TECH, China) for 30 min. Nuclei were stained with Hoechst 33258 to examine chromatin condensation or nuclear fragmentation, morphological characteristics of apoptosis. After the cells were washed twice with PBS, the cover slip was inverted and placed on a glass slide and mounted. Apoptotic cells with fluorescence of the soluble DNA fragments were detected directly and photographed under a phase contrast microscope (OLYMPUS IX51, Japan) in a Varian Fluorometer at an excitation wavelength of 365 nm and emission wavelength of 460 nm (Shareef et al., [2015])."}, "[5]": {"system": "HaCaT (human immortalized epidermal cells)", "test": "MTT growth inhibition assay, HaCaT normal cells", "type": "cell-based", "conditions": "48 h, read-out: IC50 (μM) HaCaT, MTT, 48 h, n = 3, normal cell line", "procedure": "as §1, §2, §3"}, "HeLA cells [6]": {"system": "HeLA cells", "test": "Hoechst 33258 staining, HeLA", "type": "cell-based, human", "conditions": "0.75/1.5/3.0 μM, 24 h, vs vehicle 0.1% DMSO", "procedure": "as §5, §6"}, "[7]": {"system": "T24 (human bladder carcinoma)", "test": "MTT growth inhibition assay, T24", "type": "cell-based", "conditions": "T24, 48 h, read-out: IC50 (μM) T24, MTT, 48 h, n = 3", "procedure": "as §1, §2, §3"}, "[8]": {"system": "H460 (human non-small cell lung carcinoma)", "test": "MTT growth inhibition assay, H460", "type": "cell-based", "conditions": "NCI-H460, 48 h, read-out: IC50 (μM) H460", "procedure": "as §1, §2, §3"}, "HeLA cells [9]": {"system": "HeLA cells", "test": "Cell cycle distribution analysis (FACS, propidium iodide), HeLA", "type": "cell-based, human", "conditions": "24 h", "procedure": "as §4\nTo understand the cell cycle effect of the synthesized analogs, cell cycle distribution analysis was performed by FACS (Becton Dickinson, San Jose, CA, USA). T24 and HeLA cells were treated with compound 12g for 24 h at 37°C with concentrations of 0.5/1.0/2.0 and 0.75/1.5/3.0 μM, respectively. After treatment, the cells were washed once with PBS and fixed with 70% ice-cold ethanol at […] for overnight. Ethanol was removed by Centrifugation. The cells were stained with a solution containing 0.1% Triton-X 100 (Sigma), 0.2 mg/mL RNase (Sigma), and […] propidium iodide (PI, Sigma) in the dark for 30 min at room temperature. Then, cell cycle distribution was analyzed by using a FACS can flow cytometer (Chen et al., [2013])."}}, "data": [{"smiles": "CCCN(CCC)CC(=O)NC1c2cc3c(cc2C(c2cc(OC)c(O)c(OC)c2)C2C(=O)OCC12)OCO3", "note": "(stereo not shown) [Compound 12g]", "values": [{"measurement": "IC50", "setting": "[1]", "result": "2.34 ± 0.39", "unit": "µM"}, {"measurement": "IC50", "setting": "[2]", "result": "> 50", "unit": "µM"}, {"measurement": "accumulation of T24 cells at G2/M phase", "setting": "T24 cells [3]; T24, 0.75 μM as printed in text", "result": 65.15, "unit": "%"}, {"measurement": "accumulation of T24 cells at G2/M phase", "setting": "T24 cells [3]; T24, 1.5 μM as printed in text", "result": 62.76, "unit": "%"}, {"measurement": "accumulation of T24 cells at G2/M phase", "setting": "T24 cells [3]; T24, 3.0 μM as printed in text", "result": 79.87, "unit": "%"}, {"measurement": "apoptotic morphology (Hoechst 33258 staining)", "setting": "T24 cells [4]", "result": "markedly increased chromatin condensation, nuclear fragmentation and morphological changes"}, {"measurement": "IC50", "setting": "[5]", "result": "> 50", "unit": "µM"}, {"measurement": "apoptotic morphology (Hoechst 33258 staining)", "setting": "HeLA cells [6]", "result": "markedly increased chromatin condensation, nuclear fragmentation and morphological changes"}, {"measurement": "IC50", "setting": "[7]", "result": "2.98 ± 0.26", "unit": "µM"}, {"measurement": "IC50", "setting": "[8]", "result": "24.2 ± 0.77", "unit": "µM"}, {"measurement": "Cell cycle phase (%) G2/M", "setting": "HeLA cells [9]; 0.75 uM", "result": 79.69, "unit": "%"}, {"measurement": "Cell cycle phase (%) G2/M", "setting": "HeLA cells [9]; 1.5 uM", "result": 89.18, "unit": "%"}, {"measurement": "Cell cycle phase (%) G2/M", "setting": "HeLA cells [9]; 3 uM", "result": 90.66, "unit": "%"}]}]}
